Results: patent US7435736B2, “Substituted 1-piperidin-4-yl-4-azetidin-3-yl-piperazine derivatives and their use as neurokinin antagonists” (Janssen Pharmaceutica, N.V., priority 2002, dated 2008)

Legend:
dopamine release = conditions: frontal cortex vs striatum; cited from earlier work
acute emesis = conditions: administered together with dexamethasone and 5-HT3 antagonists; cited from earlier work
cisplatin-induced emesis = conditions: acute and delayed phase, animals; cited from earlier work
h-NK1 = h-NK1 (Homo sapiens, UniProt P25103); assay: Signal transduction (ST), intracellular Ca++ FLIPR, NK1 antagonistic activity; format: cell-based; conditions: read-out: pIC50 h-NK1 (converted)
Method: (§1) This test evaluates in vitro functional NK1, NK2 and NK3 antagonistic activity. For the measurements of intracellular Ca^++ concentrations the cells were grown on 96-well (black wall/transparent bottom) plates from Costar for 2 days until they reached confluence. The cells were loaded with 2 μM Fluo3 in DMEM containing 0.1% BSA and 2.5 mM probenecid for 1 h at 37° C. They were washed 3× with a Krebs buffer (140 mM NaCl, 1 mM MgCl2×6H2O, 5 mM KCl, 10 mM glucose, 5 mM HEPES; 1.25 mM CaCl2; pH 7.4) containing 2.5 mM probenecid and 0.1% BSA (Ca^++-buffer). The cells were preincubated with a concentration range of antagonists for 20 min at RT and Ca^++-signals after addition of the agonists were measured in a Fluorescence Image Plate Reader (FLIPR from Molecular Devices, Crawley, England). The peak of the Ca^++-transient was considered as the relevant signal and the mean values of corresponding wells were analysed as described below.
(§2) The sigmoidal dose response curves were analysed by computerised curve-fitting, using the GraphPad Program. The EC50-value of a compound is the effective dose showing 50% of maximal effect. For mean curves the response to the agonist with the highest potency was normalised to 100%. For antagonist responses the IC50-value was calculated using non-linear regression. […]

h-NK3 = target: T1, h-NK3 (Homo sapiens, UniProt P29371); assay: Signal transduction (ST), intracellular Ca++ FLIPR, NK3 antagonistic activity; format: cell-based; conditions: read-out: pIC50 h-NK3 (converted)
T1 sequence (P29371 1-465): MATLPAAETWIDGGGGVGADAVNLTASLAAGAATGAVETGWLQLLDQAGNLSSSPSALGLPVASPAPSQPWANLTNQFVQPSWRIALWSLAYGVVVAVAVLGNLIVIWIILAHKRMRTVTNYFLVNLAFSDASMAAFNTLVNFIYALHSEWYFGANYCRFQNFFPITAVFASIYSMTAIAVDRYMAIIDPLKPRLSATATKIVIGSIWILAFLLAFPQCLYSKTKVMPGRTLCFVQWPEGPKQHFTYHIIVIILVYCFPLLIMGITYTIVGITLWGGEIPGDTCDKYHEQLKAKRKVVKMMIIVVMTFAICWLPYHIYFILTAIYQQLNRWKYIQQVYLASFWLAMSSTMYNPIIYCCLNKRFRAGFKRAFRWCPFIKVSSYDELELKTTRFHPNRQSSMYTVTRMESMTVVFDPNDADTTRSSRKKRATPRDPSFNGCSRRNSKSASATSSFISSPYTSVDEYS
Method: as §1, §2

h-NK2 = target: T2, h-NK2 (Homo sapiens, UniProt P21452); assay: Signal transduction (ST), intracellular Ca++ FLIPR, NK2 antagonistic activity; format: cell-based; conditions: read-out: pIC50 h-NK2 (converted)
T2 sequence (P21452 1-398): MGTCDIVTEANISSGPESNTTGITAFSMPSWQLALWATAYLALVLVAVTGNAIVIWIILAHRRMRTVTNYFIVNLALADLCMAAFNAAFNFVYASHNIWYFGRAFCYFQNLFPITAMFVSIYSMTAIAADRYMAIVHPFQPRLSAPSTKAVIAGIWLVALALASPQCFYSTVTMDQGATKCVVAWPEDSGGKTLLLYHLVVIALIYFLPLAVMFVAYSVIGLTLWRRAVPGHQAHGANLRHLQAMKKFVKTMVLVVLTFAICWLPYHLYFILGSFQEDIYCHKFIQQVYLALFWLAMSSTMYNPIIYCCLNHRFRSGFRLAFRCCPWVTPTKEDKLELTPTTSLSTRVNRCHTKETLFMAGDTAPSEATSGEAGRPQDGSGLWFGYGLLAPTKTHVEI
Method: as §1, §2

[1] = system: NK1 agonist-induced vocalisation response; conditions: guinea-pigs; cited from earlier work
schizophrenic patients = conditions: without affecting negative symptoms; cited from earlier work
major depression = conditions: data not conclusive due to high placebo response rate; cited from earlier work
[2] = system: chemotherapy- and radiation-induced sickness in cancer patients; conditions: cited from earlier work; for reduction of the development of delayed emesis: >24 h; for control of the acute emetic phase: first 24 h, either or not associated with dexamethasone

Chain of h-NK1 (P25103 whole entry): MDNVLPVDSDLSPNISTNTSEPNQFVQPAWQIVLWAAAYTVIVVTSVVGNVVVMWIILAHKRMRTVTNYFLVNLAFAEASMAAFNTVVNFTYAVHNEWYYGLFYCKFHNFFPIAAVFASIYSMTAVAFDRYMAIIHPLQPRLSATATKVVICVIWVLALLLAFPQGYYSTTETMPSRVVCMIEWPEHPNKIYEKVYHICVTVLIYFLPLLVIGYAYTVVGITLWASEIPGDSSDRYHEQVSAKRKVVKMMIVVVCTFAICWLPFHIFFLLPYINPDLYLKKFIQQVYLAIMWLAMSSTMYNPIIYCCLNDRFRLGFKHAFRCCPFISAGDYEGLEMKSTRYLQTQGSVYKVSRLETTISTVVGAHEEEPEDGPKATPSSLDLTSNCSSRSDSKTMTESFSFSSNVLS

SMILES | IC50 (h-NK1) [nM] | IC50 (h-NK3) [nM] | IC50 (h-NK2) [nM] | also measured
COc1ccc(-n2nnnc2C(F)(F)F)cc1CN[C@H]1CCCN[C@H]1c1ccccc1 [(S)-GR205,171] |  |  |  | dopamine release (dopamine release): enhance dopamine release in the frontal cortex but not in the striatum
COc1ccc(C(C)C)cc1CN[C@H]1C2CCN(CC2)[C@H]1C(c1ccccc1)c1ccccc1 [CJ-11,974, Ezlopitant] |  |  |  | prevention of acute emesis (acute emesis): additional effects
COc1ccccc1CN[C@H]1CCCN[C@H]1c1ccccc1 [CP-99,994] |  |  |  | inhibition of cisplatin-induced emesis (cisplatin-induced emesis): inhibit not only the acute but also the delayed phase
O=C(c1cc(C(F)(F)F)cc(C(F)(F)F)c1)N1CCC(N2CCN(C3CNC3)CC2)CC1Cc1ccccc1 (stereo not drawn) [Compound 2] | 123 |  |  | 
O=C(c1ccccc1)N1CC(N2CCN(C3CCN(C(=O)c4cc(C(F)(F)F)cc(C(F)(F)F)c4)C(Cc4ccccc4)C3)CC2)C1 (stereo not drawn) [Compound 3] | 19.5 |  |  | 
N#Cc1cccc(C(=O)N2CC(N3CCN([C@H]4CCN(C(=O)c5cc(C(F)(F)F)cc(C(F)(F)F)c5)[C@H](Cc5ccccc5)C4)CC3)C2)c1 [Compound 4] | 45.7 |  |  | 
O=C(c1ccc(F)c(F)c1)N1CC(N2CCN([C@H]3CCN(C(=O)c4cc(C(F)(F)F)cc(C(F)(F)F)c4)[C@H](Cc4ccccc4)C3)CC2)C1 [Compound 5] | 102 |  |  | 
O=C(c1cccnc1)N1CC(N2CCN([C@H]3CCN(C(=O)c4cc(C(F)(F)F)cc(C(F)(F)F)c4)[C@H](Cc4ccccc4)C3)CC2)C1 [Compound 6] | 49 |  |  | 
Cc1cc(C(=O)N2CC(N3CCN([C@H]4CCN(C(=O)c5cc(C(F)(F)F)cc(C(F)(F)F)c5)[C@H](Cc5ccccc5)C4)CC3)C2)n(C)n1 [Compound 7] | 72.4 | 3470 |  | 
O=C(c1ccsc1)N1CC(N2CCN(C3CCN(C(=O)c4cc(C(F)(F)F)cc(C(F)(F)F)c4)C(Cc4ccccc4)C3)CC2)C1 (stereo not drawn) [Compound 8] | 204 |  |  | 
O=C(c1ccoc1)N1CC(N2CCN([C@H]3CCN(C(=O)c4cc(C(F)(F)F)cc(C(F)(F)F)c4)[C@H](Cc4ccccc4)C3)CC2)C1 [Compound 9] | 55 |  |  | 
O=C(C1CC1)N1CC(N2CCN([C@H]3CCN(C(=O)c4cc(C(F)(F)F)cc(C(F)(F)F)c4)[C@H](Cc4ccccc4)C3)CC2)C1 [Compound 10] | 63.1 |  |  | 
O=C(C1CCOC1)N1CC(N2CCN(C3CCN(C(=O)c4cc(C(F)(F)F)cc(C(F)(F)F)c4)C(Cc4ccccc4)C3)CC2)C1 (stereo not drawn) [Compound 11] | 10.5 | ≥ 10000 | ≥ 10000 | 
O=C([C@H]1CCOC1)N1CC(N2CCN([C@H]3CCN(C(=O)c4cc(C(F)(F)F)cc(C(F)(F)F)c4)[C@H](Cc4ccccc4)C3)CC2)C1 [Compound 12] | 43.7 | ≥ 10000 | ≥ 10000 | 
CC(C)(C)OC(=O)NC(C)(C)C(=O)N1CC(N2CCN([C@H]3CCN(C(=O)c4cc(C(F)(F)F)cc(C(F)(F)F)c4)[C@H](Cc4ccccc4)C3)CC2)C1 [Compound 13] | 33.9 | ≥ 10000 | ≥ 10000 | 
CC(C(=O)N1CC(N2CCN([C@H]3CCN(C(=O)c4cc(C(F)(F)F)cc(C(F)(F)F)c4)[C@H](Cc4ccccc4)C3)CC2)C1)c1ccccc1 (stereo partly drawn) [Compound 14] | 22.9 | 631 | 3980 | 
O=C(c1cc(C(F)(F)F)cc(C(F)(F)F)c1)N1CCC(N2CCN(C3CN(S(=O)(=O)c4cccs4)C3)CC2)CC1Cc1ccccc1 (stereo not drawn) [Compound 15] | 32.4 | 1230 | 5500 | 
Cc1nnsc1C(=O)N1CC(N2CCN([C@H]3CCN(C(=O)c4cc(C(F)(F)F)cc(C(F)(F)F)c4)[C@H](Cc4ccccc4)C3)CC2)C1 [Compound 16] | 7.41 | 4900 | ≥ 10000 | 
CC(C)(C)C(=O)N1CC(N2CCN([C@H]3CCN(C(=O)c4cc(C(F)(F)F)cc(C(F)(F)F)c4)[C@H](Cc4ccccc4)C3)CC2)C1 [Compound 17] | 11 | 5500 | ≥ 10000 | 
O=C(c1ccccc1Cl)N1CC(N2CCN([C@H]3CCN(C(=O)c4cc(C(F)(F)F)cc(C(F)(F)F)c4)[C@H](Cc4ccccc4)C3)CC2)C1 [Compound 18] | 10.5 | 4370 | ≥ 10000 | 
O=C(c1cc(C(F)(F)F)cc(C(F)(F)F)c1)N1CCC(N2CCN(C3CN(c4cnccn4)C3)CC2)CC1Cc1ccccc1 (stereo not drawn) [Compound 19] | 45.7 | ≥ 10000 | ≥ 10000 | 
O=C(c1cnccn1)N1CC(N2CCN([C@H]3CCN(C(=O)c4cc(C(F)(F)F)cc(C(F)(F)F)c4)[C@H](Cc4ccccc4)C3)CC2)C1 [Compound 20] | 41.7 | 8130 | ≥ 10000 | 
CC(C)(C)OC(=O)N1CCC[C@@H]1C(=O)N1CC(N2CCN([C@H]3CCN(C(=O)c4cc(C(F)(F)F)cc(C(F)(F)F)c4)[C@H](Cc4ccccc4)C3)CC2)C1 [Compound 22] | 37.2 | 1820 | 5500 | 
FC(F)(F)c1cc(CO[C@H]2CCCN[C@H]2c2ccccc2)cc(C(F)(F)F)c1 [L-733,060] |  |  |  | antagonism of NK1 agonist-induced vocalisation response [1]: antagonised
CC(=O)N(C)C1(c2ccccc2)CCN(CCC[C@]2(c3ccc(Cl)c(Cl)c3)CCCN(C(=O)c3ccccc3)C2)CC1 [SR142801] |  |  |  | antipsychotic activity (schizophrenic patients): antipsychotic activity
C[C@@H](O[C@H]1OCCN(Cc2n[nH]c(=O)[nH]2)[C@H]1c1ccc(F)cc1)c1cc(C(F)(F)F)cc(C(F)(F)F)c1 [aprepitant] |  |  |  | antidepressant effects (major depression): antidepressant effects; inhibition of cisplatin-induced emesis (cisplatin-induced emesis): inhibit not only the acute but also the delayed phase; prevention of acute emesis (acute emesis): additional effects
CNCCC(Oc1ccc(C(F)(F)F)cc1)c1ccccc1 (stereo not drawn) [fluoxetine] |  |  |  | antagonism of NK1 agonist-induced vocalisation response [1]: antagonised
CN1C2CCCC1CC(NC(=O)c1nn(C)c3ccccc13)C2 (stereo not drawn) [granisetron] |  |  |  | reduction of the development of delayed emesis [2]: poor efficacy; control of the acute emetic phase [2]: effective
CN(C)CCCN1c2ccccc2CCc2ccccc21 [imipramine] |  |  |  | antagonism of NK1 agonist-induced vocalisation response [1]: antagonised
Cc1nccn1CC1CCc2c(c3ccccc3n2C)C1=O (stereo not drawn) [ondansetron] |  |  |  | reduction of the development of delayed emesis [2]: poor efficacy; control of the acute emetic phase [2]: effective
